Key:
LLC-PK1 cell layers [1] = assay: Transepithelial electrical resistance (Rt) across LLC-PK1 cell layers; assay type: cell-based, porcine; conditions: for transepithelial resistance: LLC-PK1 cell layers
Method: (§1) LLC-PK1 is a porcine cell line model of the kidney proximal tubule.
The effect of zinc and/or quercetin on the electrical resistance across LLC-PK1 renal epithelial cell layers was tested. Briefly, LLC-PK1 renal epithelial cell layers were treated with either 100 μM zinc alone, 400 μM quercetin alone; or both agents together. The stimulation of transepithelial electrical resistance (Rt) by maximally effective concentrations of zinc alone and quercetin alone was in the range of 50-60% of control levels. […] The results shown in FIG. 8 represent the mean+/− standard error for 12 cell layers. P values are for one-sided Student's t tests.

LLC-PK1 cell layers [2] = assay: Mannitol flux / leak across LLC-PK1 cell layers; assay type: cell-based, porcine
Method: FIG. 7A provides a graph of transepithelial resistance of untreated (control) LLC-PK1 cell layers or LLC-PK1 cell layers treated with 50 μM, 100 μM, or 200 μM zinc. FIG. 7B provides a graph of ^14C-D-mannitol leak across untreated (control) LLC-PK1 cell layers or LLC-PK1 cell layers treated with 50 μM, 100 μM, or 200 μM zinc.
as §1

Occludin [3] = assay: Occludin expression in LLC-PK1 cell layers (Western immunoblot); assay type: cell-based, porcine
From the text: (§2) Zinc has long been known to be efficacious in the treatment of certain types of diarrhea. It has been determined that zinc can render certain TJ barriers less leaky. Zinc effects can vary depending upon the specific type of epithelial layer.

Tricellulin [4] = assay: Tricellulin expression in LLC-PK1 cell layers (Western immunoblot); assay type: cell-based, porcine
From the text: as §2

Claudin-1 [5] = assay: Claudin-1 expression in LLC-PK1 cell layers (Western immunoblot); assay type: cell-based, porcine
From the text: as §2

Claudin-2 [6] = assay: Claudin-2 expression in LLC-PK1 cell layers (Western immunoblot); assay type: cell-based, porcine
From the text: as §2

Claudin-3 = Claudin-3 expression in LLC-PK1 cell layers (Western immunoblot); assay type: cell-based, porcine
From the text: as §2

Claudin-4 [7] = assay: Claudin-4 expression in LLC-PK1 cell layers (Western immunoblot); assay type: cell-based, porcine
From the text: as §2

Claudin-5 = Claudin-5 expression in LLC-PK1 cell layers (Western immunoblot); assay type: cell-based, porcine
From the text: as §2

[8] = test system: human colonic (CACO-2) epithelial cell layer; assay: Transepithelial electrical resistance (Rt) across CACO-2 cell layers; assay type: cell-based; conditions: 50 or 100 micromolar zinc; CACO-2 cell layer
From the text: (§3) When the effects of 50 or 100 micromolar zinc were examined on the TJ permeability of a human colonic (CACO-2) epithelial cell layer, the results were quite different. Here the Rt increased as with the renal epithelium. However, there was an increase—as opposed to a decrease—in a D-mannitol diffusion. In other words, zinc decreased leak to salts but increased leak to small nonelectrolytes. […] Even though the overall cellular content of the tight junction protein(s) may not be affected, zinc may cause a ‘shift’ in certain tight junction protein (e.g., certain claudins) out of the tight junctional complex and into the cell's cytoplasm.

[9] = test system: human colonic (CACO-2) epithelial cell layer; assay: D-mannitol diffusion across CACO-2 cell layers; assay type: cell-based; conditions: 50 or 100 micromolar zinc; CACO-2 cell layer
From the text: as §3

occludin [10] = assay: Occludin amount / localization in colonic (CACO-2) epithelial cell layers; assay type: cell-based, human; conditions: 50 or 100 micromolar zinc; CACO-2 cell layer
From the text: as §3

tricellulin [11] = assay: Tricellulin amount in CACO-2 cell layers; assay type: cell-based, human; conditions: 50 or 100 micromolar zinc; CACO-2 cell layer
From the text: as §3

claudin-1 [12] = assay: Claudin 1 amount / localization in colonic (CACO-2) epithelial cell layers; assay type: cell-based, human; conditions: 50 or 100 micromolar zinc; CACO-2 cell layer
From the text: as §3

claudin 2 = assay: Claudin 2 amount in colonic (CACO-2) epithelial cell layers; assay type: cell-based, human; conditions: 50 or 100 micromolar zinc; CACO-2 cell layer
From the text: as §3

claudin 3 = assay: Claudin 3 amount in colonic (CACO-2) epithelial cell layers; assay type: cell-based, human; conditions: 50 or 100 micromolar zinc; CACO-2 cell layer
From the text: as §3

claudin-4 [13] = assay: Claudin 4 amount in colonic (CACO-2) epithelial cell layers; assay type: cell-based, human; conditions: 50 or 100 micromolar zinc; CACO-2 cell layer
From the text: as §3

claudin 5 = assay: Claudin 5 amount in colonic (CACO-2) epithelial cell layers; assay type: cell-based, human; conditions: 50 or 100 micromolar zinc; CACO-2 cell layer
From the text: as §3

claudin 7 = assay: Claudin 7 amount in colonic (CACO-2) epithelial cell layers; assay type: cell-based, human; conditions: 50 or 100 micromolar zinc; CACO-2 cell layer
From the text: as §3

occludin [14] = conditions: zinc; colonic (CACO-2) epithelia; Finamore et al. 2008; cited from earlier work
ZO-1 [15] = conditions: zinc; colonic (CACO-2) epithelia; Finamore et al. 2008; cited from earlier work
small intestine = conditions: zinc supplementation, Zhang et al. 2009; cited from earlier work
occludin [16] = conditions: zinc supplementation; small intestine; Zhang et al. 2009; cited from earlier work
ZO-1 [17] = conditions: zinc supplementation; small intestine; Zhang et al. 2009; cited from earlier work
epithelial TJs = conditions: arginine; Rhoads et al. 2009; cited from earlier work
Claudin-7 = Claudin-7 expression in LLC-PK1 cell layers; assay type: cell-based, porcine; conditions: indole; LLC-PK1 cells
[18] = test system: human colonic (HCT-8) epithelial cell layers; conditions: indole 1 mM; HCT-8 cell layers; Bansal et al. 2010; cited from earlier work
claudin-2 [19] = conditions: indole 1 mM; HCT-8 cell layers; Bansal et al. 2010; cited from earlier work
[20] = zinc at 50 and 100 micromolar, LLC-PK1 epithelium
[21] = zinc, LLC-PK1 renal epithelial model
[22] = 1 mM Indole, LLC-PK1 cell layers, given as Decr (decrease)
[23] = 1 mM Indole, LLC-PK1 cell layers, given as Incr (increase)

[Zn] [zinc]
transepithelial resistance (LLC-PK1 cell layers [1]; 100 μM Zn, given as Incr (increase)): Incr > 40%
transepithelial resistance (LLC-PK1 cell layers [1]; zinc (50, 100, 200 μM, FIG. 7A)): increased
transepithelial electrical resistance (Rt) (LLC-PK1 cell layers [1]; zinc at 50 and 100 micromolar, renal proximal tubular-like (LLC-PK1) epithelium): increased
Mannitol Flux (LLC-PK1 cell layers [2]; 100 μM Zn, LLC-PK1 cell layers, given as Decr (decrease)): Decr > 20%
mannitol leaking across the cell layer (LLC-PK1 cell layers [2]; zinc (50, 100, 200 μM, FIG. 7B), LLC-PK1 cell layers): decrease
transepithelial diffusion of D-mannitol (LLC-PK1 cell layers [2]; [20]): decreased
occludin expression by Western immunoblot (Occludin [3]; [20]): none had exhibited increased or decreased expression
tricellulin expression by Western immunoblot (Tricellulin [4]; [20]): none had exhibited increased or decreased expression
claudin 1 expression by Western immunoblot (Claudin-1 [5]; [20]): none had exhibited increased or decreased expression
claudin 2 expression by Western immunoblot (Claudin-2 [6]; [20]): none had exhibited increased or decreased expression
shift of claudin 2 out of the tight junctional complex into the cytoplasm (Claudin-2 [6]; [21]): has been observed
claudin 3 expression by Western immunoblot (Claudin-3; [20]): none had exhibited increased or decreased expression
claudin 4 expression by Western immunoblot (Claudin-4 [7]; [20]): none had exhibited increased or decreased expression
shift of claudin 4 out of the tight junctional complex into the cytoplasm (Claudin-4 [7]; [21]): has been observed
claudin 5 expression by Western immunoblot (Claudin-5; [20]): none had exhibited increased or decreased expression
Rt [8]: increased
D-mannitol diffusion [9]: increase
occludin amount (occludin [10]): no changes
tricellulin amount (tricellulin [11]): no changes
claudin 1 amount (claudin-1 [12]): no changes
claudin 2 amount (claudin 2): significant decreases
claudin 3 amount (claudin 3): no changes
claudin 4 amount (claudin-4 [13]): no changes
claudin 5 amount (claudin 5): no changes
claudin 7 amount (claudin 7): significant decreases
localization of occludin (occludin [14]): regulate the localization
localization of ZO-1 (ZO-1 [15]): regulate the localization
leakage of the small non-electrolyte lactulose (small intestine): decreasing
levels of occludin (occludin [16]): increased
levels of ZO-1 (ZO-1 [17]): increased

N=C(N)NCCC[C@H](N)C(=O)O [arginine]
barrier-enhancing effects (compared with glutamine) (epithelial TJs): very similar barrier-enhancing effects

c1ccc2[nH]ccc2c1 [indole]
transepithelial resistance (LLC-PK1 cell layers [1]; 1 mM Indole, given as Incr (increase)): Incr 30%
transepithelial resistance (LLC-PK1 cell layers [1]; indole (0.1, 1, 2 mM, FIG. 6)): increased
effect on occludin (Occludin [3]; indole, LLC-PK1 cells): less than 50%
Tricellulin (Tricellulin [4]; [22]): Decr 10%
effect on tricellulin (Tricellulin [4]; indole, LLC-PK1 cells): less than 50%
Claudin-1 (Claudin-1 [5]; [22]): Decr 30%
effect on claudin 1 (Claudin-1 [5]; indole, LLC-PK1 cells): less than 50%
Claudin-2 (Claudin-2 [6]; [22]): Decr 40%
effect on claudin 2 (Claudin-2 [6]; indole, LLC-PK1 cells): less than 50%
Claudin-3 (Claudin-3; [22]): Decr 20%
effect on claudin 3 (Claudin-3; indole, LLC-PK1 cells): less than 50%
Claudin-4 (Claudin-4 [7]; [23]): Incr 100%
expression of Claudin 4 (Claudin-4 [7]; indole (1 mM, FIG. 5A), LLC-PK1 cells): upregulated
Claudin-5 (Claudin-5; [23]): Incr 150%
expression of Claudin 5 (Claudin-5; indole (1 mM, FIG. 5B), LLC-PK1 cells): upregulated
effect on claudin 7 (Claudin-7): less than 50%
Rt [18]: increased
abundance of claudin-2 (claudin-2 [19]): decreased

Reference: US20150140121A1, “Compositions and Methods for Tight Junction Modulation” (Lankenau Institute for Medical Research, priority 2012, published 2015)
